The text below walks through data of BindingDB's records for doi:10.1021/jm00159a032 (1986).

The target in the assay is Thymidylate synthase (Streptococcus faecium). The assay can be described thus: Inhibitory activity against thymidylate synthase of Streptococcus faecium.

One may read the IC50 as the midpoint of a concentration-inhibition curve. Read a low IC50 as greater potency. Consider `C#CN(Cc1ccc2nc(N)[nH]c(=O)c2c1)c1ccc(C(=O)NC(CCC(=O)NC(CCC(=O)NC(CCC(=O)O)C(=O)O)C(=O)O)C(=O)O)cc1` (stereo unspecified) [4-[4-(4-{4-[(2-Amino-4-hydroxy-quinazolin-6-ylmethyl)-ethynyl-amino]-benzoylamino}-4-carboxy-butyrylamino)-4-carboxy-butyrylamino]-4-carboxy-butyric acid anion], for which the half-maximal inhibitory concentration (IC50) is 5.5 nM.
